According to patent publication US12377104B1, “Methods for treating a fatty liver disease” (Madrigal Pharmaceuticals, Inc., priority 2024, dated 2025):

Test system: NASH patients
Assay: MAESTRO-NASH: efficacy by baseline body weight and BMI
Assay type: in vivo, human
Details: for ≥30% Reduction in MRI-PDFF at Week 52, Assessment (%) / ≥120% Increase in SHBG at Week 52, Assessment (%): post hoc
Experimental: In the MAESTRO-NASH study, randomization to 80 mg and 100 mg doses was equal across all body weights. Analyses were conducted to provide additional evidence of a relationship between resmetirom dose, baseline body weight and body mass index (BMI), and safety/efficacy readouts. […] The only variable that determined exposure to resmetirom in the NASH population was body weight. […] Study median body weight was 100 kg. […] et al. (2024). CAP was stable over time, both doses showing a similar durable response (FIG. 30B).

[1] = Week 52 Paired Biopsies, 80 mg, >100 kg
[2] = Week 52 Paired Biopsies, 80 mg, ≤100 kg
[3] = Week 52 Paired Biopsies, 100 mg, >100 kg
[4] = Week 52 Paired Biopsies, 100 mg, ≤100 kg
[5] = Week 52 Primary Population, 80 mg, >100 kg
[6] = Week 52 Primary Population, 80 mg, ≤100 kg
[7] = Week 52 Primary Population, 100 mg, >100 kg
[8] = Week 52 Primary Population, 100 mg, ≤100 kg

CC(C)c1cc(Oc2c(Cl)cc(-n3nc(C#N)c(=O)[nH]c3=O)cc2Cl)n[nH]c1=O [Resmetirom, 2-(3,5-dichloro-4-((5-isopropyl-6-oxo-1,6-dihydropyridazin-3-yl)oxy)phenyl)-3,5-dioxo-2,3,4,5-tetrahydro-1,2,4-triazine-6-carbonitrile]
Week 52 Paired Biopsies Consensus NASH Resolution Responder: number (100 mg, 80-<90 kg): 16
Week 52 Paired Biopsies Consensus NASH Resolution Responder: percentage (in parentheses) (100 mg, 80-<90 kg): (39.0)
≥30% reduction in MRI-PDFF at Week 52: number of patients (100 mg, 80-<90 kg): 30
≥30% reduction in MRI-PDFF at Week 52: percentage of patients (in parentheses) (100 mg, 80-<90 kg): (76.9)
≥120% increase in SHBG at Week 52: number of patients (100 mg, 80-<90 kg): 27
≥120% increase in SHBG at Week 52: percentage of patients (in parentheses) (100 mg, 80-<90 kg): (62.8)
Discontinued Study Prior to Week 52: number (100 mg, 90-<100 kg): 15
Discontinued Study Prior to Week 52: percentage (in parentheses) (100 mg, 90-<100 kg): (25.4)
Week 52 MITT Consensus Fibrosis Improvement Responder: number (100 mg, 90-<100 kg): 12
Week 52 MITT Consensus Fibrosis Improvement Responder: percentage (in parentheses) (100 mg, 90-<100 kg): (20.3)
Week 52 MITT Consensus NASH Resolution Responder: number (100 mg, 90-<100 kg): 13
Week 52 MITT Consensus NASH Resolution Responder: percentage (in parentheses) (100 mg, 90-<100 kg): (22.0)
Week 52 Paired Biopsies Consensus Fibrosis Improvement Responder: number (100 mg, 90-<100 kg): 12
Week 52 Paired Biopsies Consensus Fibrosis Improvement Responder: percentage (in parentheses) (100 mg, 90-<100 kg): (29.3)
Week 52 Paired Biopsies Consensus NASH Resolution Responder: number (100 mg, 90-<100 kg): 13
Week 52 Paired Biopsies Consensus NASH Resolution Responder: percentage (in parentheses) (100 mg, 90-<100 kg): (31.7)
≥30% reduction in MRI-PDFF at Week 52: number of patients (100 mg, 90-<100 kg): 24
≥30% reduction in MRI-PDFF at Week 52: percentage of patients (in parentheses) (100 mg, 90-<100 kg): (70.6)
≥120% increase in SHBG at Week 52: number of patients (100 mg, 90-<100 kg): 28
≥120% increase in SHBG at Week 52: percentage of patients (in parentheses) (100 mg, 90-<100 kg): (63.6)
Discontinued Study Prior to Week 52: number (100 mg, 100-<110 kg): 9
Discontinued Study Prior to Week 52: percentage (in parentheses) (100 mg, 100-<110 kg): (17.6)
Week 52 MITT Consensus Fibrosis Improvement Responder: number (100 mg, 100-<110 kg): 14
Week 52 MITT Consensus Fibrosis Improvement Responder: percentage (in parentheses) (100 mg, 100-<110 kg): (27.5)
Week 52 MITT Consensus NASH Resolution Responder: number (100 mg, 100-<110 kg): 16
Week 52 MITT Consensus NASH Resolution Responder: percentage (in parentheses) (100 mg, 100-<110 kg): (31.4)
Week 52 Paired Biopsies Consensus Fibrosis Improvement Responder: number (100 mg, 100-<110 kg): 14
Week 52 Paired Biopsies Consensus Fibrosis Improvement Responder: percentage (in parentheses) (100 mg, 100-<110 kg): (35.0)
Week 52 Paired Biopsies Consensus NASH Resolution Responder: number (100 mg, 100-<110 kg): 16
Week 52 Paired Biopsies Consensus NASH Resolution Responder: percentage (in parentheses) (100 mg, 100-<110 kg): (40.0)
≥30% reduction in MRI-PDFF at Week 52: number of patients (100 mg, 100-<110 kg): 29
≥30% reduction in MRI-PDFF at Week 52: percentage of patients (in parentheses) (100 mg, 100-<110 kg): (70.7)
≥120% increase in SHBG at Week 52: number of patients (100 mg, 100-<110 kg): 27
≥120% increase in SHBG at Week 52: percentage of patients (in parentheses) (100 mg, 100-<110 kg): (62.8)
Discontinued Study Prior to Week 52: number (100 mg, <80 kg): 12
Discontinued Study Prior to Week 52: percentage (in parentheses) (100 mg, <80 kg): (21.4)
Week 52 MITT Consensus Fibrosis Improvement Responder: number (100 mg, <80 kg): 16
Week 52 MITT Consensus Fibrosis Improvement Responder: percentage (in parentheses) (100 mg, <80 kg): (28.6)
Week 52 MITT Consensus NASH Resolution Responder: number (100 mg, <80 kg): 14
Week 52 MITT Consensus NASH Resolution Responder: percentage (in parentheses) (100 mg, <80 kg): (25.0)
Week 52 Paired Biopsies Consensus Fibrosis Improvement Responder: number (100 mg, <80 kg): 16
Week 52 Paired Biopsies Consensus Fibrosis Improvement Responder: percentage (in parentheses) (100 mg, <80 kg): (40.0)
Week 52 Paired Biopsies Consensus NASH Resolution Responder: number (100 mg, <80 kg): 14
Week 52 Paired Biopsies Consensus NASH Resolution Responder: percentage (in parentheses) (100 mg, <80 kg): (35.0)
≥30% reduction in MRI-PDFF at Week 52: number of patients (100 mg, <80 kg): 24
≥30% reduction in MRI-PDFF at Week 52: percentage of patients (in parentheses) (100 mg, <80 kg): (64.9)
≥120% increase in SHBG at Week 52: number of patients (100 mg, <80 kg): 30
≥120% increase in SHBG at Week 52: percentage of patients (in parentheses) (100 mg, <80 kg): (68.2)
≥30% Reduction in MRI-PDFF at Week 52, Assessment (%) (100 mg, body weight >100 kg): 72.5%
≥120% Increase in SHBG at Week 52, Assessment (%) (100 mg, body weight >100 kg): 55.0%
≥30% Reduction in MRI-PDFF at Week 52, Assessment (%) (100 mg, body weight ≤100 kg): 71.7%
≥120% Increase in SHBG at Week 52, Assessment (%) (100 mg, body weight ≤100 kg): 64.2%
Discontinued Study Prior to Week 52: number (100 mg, ≥110 kg): 18
Discontinued Study Prior to Week 52: percentage (in parentheses) (100 mg, ≥110 kg): (16.7)
Week 52 MITT Consensus Fibrosis Improvement Responder: number (100 mg, ≥110 kg): 27
Week 52 MITT Consensus Fibrosis Improvement Responder: percentage (in parentheses) (100 mg, ≥110 kg): (25.0)
Week 52 MITT Consensus NASH Resolution Responder: number (100 mg, ≥110 kg): 30
Week 52 MITT Consensus NASH Resolution Responder: percentage (in parentheses) (100 mg, ≥110 kg): (27.8)
Week 52 Paired Biopsies Consensus Fibrosis Improvement Responder: number (100 mg, ≥110 kg): 27
Week 52 Paired Biopsies Consensus Fibrosis Improvement Responder: percentage (in parentheses) (100 mg, ≥110 kg): (31.4)
Week 52 Paired Biopsies Consensus NASH Resolution Responder: number (100 mg, ≥110 kg): 30
Week 52 Paired Biopsies Consensus NASH Resolution Responder: percentage (in parentheses) (100 mg, ≥110 kg): (34.9)
≥30% reduction in MRI-PDFF at Week 52: number of patients (100 mg, ≥110 kg): 53
≥30% reduction in MRI-PDFF at Week 52: percentage of patients (in parentheses) (100 mg, ≥110 kg): (74.6)
≥120% increase in SHBG at Week 52: number of patients (100 mg, ≥110 kg): 45
≥120% increase in SHBG at Week 52: percentage of patients (in parentheses) (100 mg, ≥110 kg): (50.6)
patients with worsening of VCTE (VCTE responder analyses at 1-3 years): less than 10%
Consensus Fibrosis Improvement, Assessment (%) [1]: 22.5%
Consensus NASH Resolution, Assessment (%) [1]: 27.0%
Consensus Fibrosis Improvement, Assessment (%) [2]: 35.4%
Consensus NASH Resolution, Assessment (%) [2]: 32.0%
Consensus Fibrosis Improvement, Assessment (%) [3]: 32.5%
Consensus NASH Resolution, Assessment (%) [3]: 35.8%
Consensus Fibrosis Improvement, Assessment (%) [4]: 33.6%
Consensus NASH Resolution, Assessment (%) [4]: 36.0%
Consensus Fibrosis Improvement, Assessment (%) [5]: 17.4%
Consensus NASH Resolution, Assessment (%) [5]: 20.8%
Consensus Fibrosis Improvement, Assessment (%) [6]: 29.2%
Consensus NASH Resolution, Assessment (%) [6]: 26.4%
Consensus Fibrosis Improvement, Assessment (%) [7]: 25.6%
Consensus NASH Resolution, Assessment (%) [7]: 28.2%
Consensus Fibrosis Improvement, Assessment (%) [8]: 25.1%
Consensus NASH Resolution, Assessment (%) [8]: 26.9%
